Results published in patent US5800838A, “Composition that inhibits or destroys at least one unicellular living organism containing fluorine F- and Lithium li+” (priority 1987, dated 1998).
Converted amounts (≈) assume the structure as drawn. Where two headings read alike, the source gives them in different places. One block for each molecule: values may come before it.

Assays:
Haemophilus influenzae = assay: Antibiotic activity of ampicillin (Example 24); format: cell-based; details: read-out: minimal inhibitory concentration
Entrococcus faecium = assay: Antibiotic activity of ampicillin (Example 24); format: cell-based; details: resistant to ampicillin, read-out: minimal inhibitory concentration
Pseudomonas aeruginosa [1] = assay: Antibiotic activity of ampicillin (Example 24); format: cell-based; details: read-out: minimal inhibitory concentration
Escherichia coli [2] = assay: Antibiotic activity of ampicillin (Example 24); format: cell-based
Staphylococcus aureus = assay: Antibiotic activity of ampicillin (Example 24); format: cell-based; details: read-out: minimal inhibitory concentration
Streptococcus faecalis = assay: Antibiotic activity of ampicillin (Example 24); format: cell-based; details: Enterococcus faecalis, read-out: minimal inhibitory concentration
Group C streptococcus [3] = assay: Antibiotic activity of ampicillin (Example 24); format: cell-based; details: read-out: minimal inhibitory concentration
Pseudomonas aeruginosa [4] = assay: MIC of doxycycline (Example 32); format: cell-based; details: alone, or with FNa 8 ppm / Fli 8 ppm
Excerpt: The MIC of doxycycline was studied on pseudomonas aeruginosa (wild-type hospital strain) in the same conditions as for example 31.

[5] = tested on: Escherichia coli ATCC 25922; assay: Antibiotic activity of patient's blood after administration, inhibition holes methodology; format: in vivo
Excerpt: The efficiency in vivo of the administration of doxycycline in presence of Fli has been measured and compared with the efficiency of the administration of doxycycline alone.
The antibiotic composition (doxycycline alone or with Fli) has been administered to a healthy patient, and the antibiotic activity of the patient's blood has been determined before the first administration, the day of the administration, and three days later. The delay of three days is necessary because of the low solubility of Fli: the pertinent concentration of Fli is only obtained after the end of the second day after its administration.
The patient had taken the antibiotic during the three days, 2 capsules of 250 mg each day at 8 a.m. A blood sample was taken 3 hours after each administration.
And the antibiotic activity was twice determined by a microbiological titration using the inhibition holes methodology on a standard strain ATCC 25922 of Escherichia coli.
Holes of […] diameter were made on a Mueller Hinton agar and 100 μl of plasma were injected in each hole. The agar was then seeded with an inoculum of Escherichia coli of […].
After an incubation of 24 hours at 37° C., the diameters around each holes (in which the strain was killed) were read.
In the first trial, the capsules of 250 mg were constituted of 110 mg of doxycycline chlorhydrate and of lactose.
The second trial was conducted similarly with gelules of 250 mg constituted of 110 mg of doxycycline, 53 mg of Fli and lactose.

Escherichia coli [6] = assay: Activity on wild-type hospital strains responsible for skin infections; format: cell-based; details: Escherichia coli, read-out: 100% inhibitory concentration
Group C streptococcus [7] = assay: as above; format: cell-based; details: Streptococcus
staphylococcus aeurus = format: cell-based; details: Fli 4 ppm
Description: Strains Gram+ and Gram- (wild-type hospital) having a resistant phenotype vis a vis standard firstly and secondly used antibiotherapy were experimented on activated antibiotics.
250 experiments were conducted on the following strains: Streptococcus group B, C, D, F, G, Staphylococcus aureus, Staphylococcus epidermitis, Klebsiella pneumoniae, Klebsiella spirochete, Klebsiella oxytoca, Proteus mirabilis, Serratia marcescens, Escherichia coli, Citrobacter freundii, Enterobacter cloacae, Enterobacter calcoaceticus, Salmonella spirochete, Salmonella typhimurium, Pseudomonas aeruginosa, Haemophilus influenzae, Haemophilus sphrophilus, Acinetobacter calcoaeticus. […]

spermatozoa = details: alone; cited from earlier work
[8] = LiF 0.8 mg/l, multiresistant strains often producing beta-lactamase
[9] = alone, multiresistant strains often producing beta-lactamase

MIC (Haemophilus influenzae; [8]): 32 µg/mL (≈ 91.6 µM) | MIC (Haemophilus influenzae; LiF 5 mg/l, resistant to ampicillin, 5 wild-type strains): 32 µg/mL (≈ 91.6 µM) | MIC (Haemophilus influenzae; [9]): > 128 µg/mL | MIC (Haemophilus influenzae; alone, resistant to ampicillin, 5 wild-type strains): > 128 µg/mL | MIC (Entrococcus faecium; LiF 5 mg/l): 64 µg/mL (≈ 183 µM) | MIC (Entrococcus faecium; alone): > 128 µg/mL | MIC (Pseudomonas aeruginosa [1]; [8]): 4 to 8 µg/mL (≈ 11.4 to 22.9 µM) | MIC (Pseudomonas aeruginosa [1]; LiF 5 mg/l): 4 to 8 µg/mL (≈ 11.4 to 22.9 µM) | MIC (Pseudomonas aeruginosa [1]; [9]): 16 to 32 µg/mL (≈ 45.8 to 91.6 µM) | MIC (Pseudomonas aeruginosa [1]; alone): 16 to 32 µg/mL (≈ 45.8 to 91.6 µM) | MIC (Escherichia coli [2]; ATCC25, LiF 1 mg/l, ATCC 25 922, read-out: minimal inhibitory concentration): 2 µg/mL (≈ 5.72 µM) | MIC (Escherichia coli [2]; ATCC25, alone, ATCC 25 922, read-out: minimal inhibitory concentration): 4 µg/mL (≈ 11.4 µM) | MIC (Escherichia coli [2]; LiF 0.8 mg/l, multiresistant strains often producing beta-lactamase, read-out: minimal inhibitory concentration): 8 µg/mL (≈ 22.9 µM) | MIC (Escherichia coli [2]; LiF 5 mg/l, 10 wild-type strains, read-out: minimal inhibitory concentration): 1 to 4 µg/mL (≈ 2.86 to 11.4 µM) | MIC (Escherichia coli [2]; LiF 5 mg/l, resistant Escherichia coli, read-out: minimal inhibitory concentration): 8 µg/mL (≈ 22.9 µM) | MIC (Escherichia coli [2]; alone, 10 wild-type strains, read-out: minimal inhibitory concentration): 2 to 8 µg/mL (≈ 5.72 to 22.9 µM) | MIC (Escherichia coli [2]; alone, multiresistant strains often producing beta-lactamase, read-out: minimal inhibitory concentration): 64 µg/mL (≈ 183 µM) | MIC (Escherichia coli [2]; alone, resistant Escherichia coli, read-out: minimal inhibitory concentration): 64 µg/mL (≈ 183 µM) | MIC (Staphylococcus aureus; [8]): 32 µg/mL (≈ 91.6 µM) | MIC (Staphylococcus aureus; LiF 1 mg/l, resistant to ampicillin, 10 strains): 64 µg/mL (≈ 183 µM) | MIC (Staphylococcus aureus; LiF 6 mg/l, resistant to ampicillin, strains producing beta-lactamase): 64 µg/mL (≈ 183 µM) | MIC (Staphylococcus aureus; [9]): > 128 µg/mL | MIC (Staphylococcus aureus; alone, resistant to ampicillin, 10 strains): > 128 µg/mL | MIC (Staphylococcus aureus; alone, resistant to ampicillin, strains producing beta-lactamase): > 128 µg/mL | MIC (Streptococcus faecalis; ATCC25, LiF 5 mg/l, ATCC 25 212): 4 µg/mL (≈ 11.4 µM) | MIC (Streptococcus faecalis; ATCC25, alone, ATCC 25 212): 8 µg/mL (≈ 22.9 µM) | MIC (Streptococcus faecalis; LiF 5 mg/l, 10 wild-type strains): 2 µg/mL (≈ 5.72 µM) | MIC (Streptococcus faecalis; alone, 10 wild-type strains): 4 to 8 µg/mL (≈ 11.4 to 22.9 µM) | MIC (Group C streptococcus [3]; [8]): 64 µg/mL (≈ 183 µM) | MIC (Group C streptococcus [3]; LiF 1 mg/l): 8 µg/mL (≈ 22.9 µM) | MIC (Group C streptococcus [3]; [9]): 256 µg/mL (≈ 733 µM) | MIC (Group C streptococcus [3]; alone): 32 µg/mL (≈ 91.6 µM)
SMILES: CC1(C)S[C@@H]2[C@H](NC(=O)[C@H](N)c3ccccc3)C(=O)N2[C@H]1C(=O)O [AMPICILLIN, ampicillin]

MIC (Pseudomonas aeruginosa [4]): 1000 µg/mL
SMILES: C[C@H]1c2cccc(O)c2C(=O)C2=C(O)[C@]3(O)C(=O)C(C(N)=O)=C(O)[C@@H](N(C)C)[C@@H]3[C@@H](O)[C@@H]21 [DOXYCYCLINE, doxycycline]
inhibition diameter ([5]; J0, day before the first administration, healthy patient, plasma): 7 mm | inhibition diameter ([5]; J1, day of the first administration, 2 capsules each day, blood 3 hours after administration): 8-9 mm | inhibition diameter ([5]; J3, third day of administration, 2 capsules each day, blood 3 hours after administration): 11-12 mm

SMILES: CC[C@H]1OC(=O)[C@H](C)[C@@H](O[C@H]2C[C@@](C)(OC)[C@@H](O)[C@H](C)O2)[C@H](C)[C@@H](O[C@@H]2O[C@H](C)C[C@H](N(C)C)[C@H]2O)[C@](C)(O)C[C@@H](C)C(=O)[C@H](C)[C@@H](O)[C@]1(C)O [ERYTHROMYCIN, erythromycin]
MIC (Escherichia coli [6]; alone): > 64 µg/mL | MIC (Escherichia coli [6]; in the presence of LiF 8 ppm): 32 µg/mL | MIC (Group C streptococcus [7]; read-out: 100% inhibitory concentration, alone): > 0.25 µg/mL | MIC (Group C streptococcus [7]; read-out: 100% inhibitory concentration, in the presence of LiF 4 ppm): 0.125 µg/mL | phenotype in presence of Fli (staphylococcus aeurus): the resistant phenotype was not changed

SMILES: F [F^- ions]
MIC (minimal inhibitory concentration) (spermatozoa): 5 ppm | MIC, equivalent in % (spermatozoa): 0.0005%
